Data as given in patent US7138361B2, “Herbicidal heterocycles” (E. I. du Pont de Nemours and Company, priority 2000, dated 2006).

What was measured:
Type in all cases: in vivo
[1] = tested on: Sunflower; experiment: Test C preemergence; conditions: Rate 250 g/ha, scale 0 to 100, 0 no effect, 100 complete control
[2] = tested on: Nightshade; experiment: Test C preemergence; conditions: Rate 500 g/ha, visual evaluation after 12 to 14 days
[3] = tested on: wild oat (Avena fatua); experiment: Test B postemergence; conditions: Rate 500 g/ha, scale 0 to 100, 0 is no effect, 100 is complete control, 13 to 15 days
Outline: (§1)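 Post-treatment, species sat 13–15 days under greenhouse conditions before visual scoring against controls, 0 (no effect) through 100 (complete control). Application preemergence to sown seeds or postemergence at 1- to 4-leaf stage, using a non-phytotoxic solvent/surfactant formulation.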

[4] = tested on: corn (Zea mays); experiment: Test B postemergence; conditions: 13 to 15 days
Outline: as §1

[5] = tested on: barnyardgrass (Echinochloa crus-galli); experiment: Test B postemergence; conditions: 13 to 15 days
Outline: as §1

[6] = tested on: wheat (Triticum aestivum); experiment: Test B postemergence; conditions: Rate 500 g/ha, scale 0 to 100, 0 is no effect, 100 is complete control, 13 to 15 days
Outline: as §1

[7] = tested on: rice (Oryza saliva); experiment: Test C flooded paddy test; conditions: for Rice plant response rating: Flooded Paddy, scale 0 to 100, 0 no effect, 100 complete control
Outline: (§2)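 Greenhouse-maintained for 12 to 14 days after treatment, the paddy plants (2-leaf stage at application) were scored visually against controls. A score of 0 denotes no effect and a score of 100 denotes complete control.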

[8] = tested on: duck salad (Heteranthera limosa); experiment: Test C flooded paddy test; conditions: for Ducksalad plant response rating: Flooded Paddy, scale 0 to 100, 0 no effect, 100 complete control; for Plant response rating, Ducksalad: flooded paddy test, scale 0 to 100 (0 no effect, 100 complete control)
Outline: as §2

[9] = tested on: barnyardgrass (Echinochloa crus-galli); experiment: Test C flooded paddy test; conditions: for Barnyardgrass plant response rating: Flooded Paddy, scale 0 to 100, 0 no effect, 100 complete control; for Plant response rating, Barnyardgrass: flooded paddy test, scale 0 to 100 (0 no effect, 100 complete control)
Outline: as §2

[10] = tested on: smallflower flatsedge (Cyperus difformis); experiment: Test C flooded paddy test; conditions: for Flatsedge plant response rating: Flooded Paddy, scale 0 to 100, 0 no effect, 100 complete control; for Plant response rating, Flatsedge: flooded paddy test, scale 0 to 100 (0 no effect, 100 complete control)
Outline: as §2

[11] = tested on: pigweed (Amaranthus retroflexus); experiment: Test C preemergence
Outline: (§3)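 Herbicidal effect is a visual 0–100 score (100 = complete control) assigned versus untreated plants, 12 to 14 days after spraying in the greenhouse. Test compounds were applied in a non-phytotoxic, surfactant-containing solvent.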

[12] = tested on: lambsquarters (Chenopodium album); experiment: Test C preemergence
Outline: as §3

[13] = tested on: Nightshade; experiment: Test C preemergence
[14] = tested on: corn (Zea mays); experiment: Test C preemergence
Outline: as §3

[15] = tested on: soybean (Glycine max); experiment: Test C preemergence
Outline: as §3

[16] = tested on: kochia (Kochia scoparia); experiment: Test C preemergence
Outline: as §3

[17] = tested on: yellow nutsedge (Cyperus esculentus); experiment: Test C preemergence
Outline: as §3

[18] = tested on: woolly cupgrass (Eriochloa villosa); experiment: Test C preemergence
Outline: as §3

[19] = tested on: johnsongrass (Sorghum halepense); experiment: Test C preemergence; conditions: preemergence
Outline: as §3

[20] = Rate 125 g/ha, scale 0 (no effect) to 100 (complete control)
[21] = Rate 500 g/ha, scale 0 to 100, 0 is no effect, 100 is complete control
[22] = Rate 125 g/ha, scale 0 to 100, 0 no effect, 100 complete control
[23] = preemergence, Rate 62 g/ha, scale 0 to 100
[24] = preemergence, Rate 500 g/ha, visual evaluation after 12 to 14 days
[25] = preemergence, Rate 250 g/ha, scale 0 to 100, 0 no effect, 100 complete control
[26] = Rate 250 g/ha, scale 0 to 100, 0 no effect, 100 complete control

CC(C)(C)c1ccn(C2CCN(c3cccc(SC(F)(F)F)c3)C2=O)n1 (stereo not drawn) [Compound 93]
80: Rice plant response rating ([7]; Rate 500 g/ha) | Plant response rating (0 to 100), Pigweed [11, 24] | Plant response rating (0 to 100), Kochia [16, 24] | Plant response rating (0 to 100), Cupgrass, Woolly [18, 24]
10: Plant response rating (0 to 100), Nightshade [2] | Plant response rating (0 to 100), Johnsongrass ([19]; Rate 500 g/ha, visual evaluation after 12 to 14 days) | Plant response rating, Johnsongrass [19, 26]
100: Ducksalad plant response rating ([8]; Rate 250 g/ha) | Ducksalad plant response rating ([8]; Rate 500 g/ha) | Flatsedge plant response rating ([10]; Rate 250 g/ha) | Flatsedge plant response rating ([10]; Rate 500 g/ha) | Plant response rating, Flatsedge ([10]; Rate 125 g/ha) | Plant response rating (0 to 100), Lambsquarters [12, 24]
30: Plant response rating (0 to 100), Corn [14, 24] | Plant response rating, Kochia [16, 25]
90: Plant response rating, Ducksalad ([8]; Rate 125 g/ha) | Plant response rating, Lambsquarters [12, 25]
70: Barnyardgrass plant response rating ([9]; Rate 500 g/ha) | Plant response rating, Lambsquarters [12, 22] | Plant response rating, Cupgrass, Woolly [18, 25]
20: Rice plant response rating ([7]; Rate 250 g/ha) | Plant response rating, Pigweed [11, 22] | Plant response rating, Pigweed [11, 25] | Plant response rating (0 to 100), Soybean [15, 24] | Plant response rating, Cupgrass, Woolly [18, 22]
50: Plant response rating, Barnyardgrass ([9]; Rate 125 g/ha)
60: Barnyardgrass plant response rating ([9]; Rate 250 g/ha)
0: Plant response rating, Sunflower [1] | Plant response rating, Wild Oat [3] | Plant response rating, Corn [4, 20] | Plant response rating, Corn [4, 21] | Plant response rating, Barnyardgrass [5, 20] | Plant response rating, Barnyardgrass [5, 21] | Plant response rating, Wheat [6] | Plant response rating, Rice ([7]; flooded paddy test, Rate 62 g/ha, scale 0 to 100 (0 no effect, 100 complete control)) | Plant response rating, Ducksalad ([8]; Rate 62 g/ha) | Plant response rating, Barnyardgrass ([9]; Rate 62 g/ha) | Plant response rating, Flatsedge ([10]; Rate 62 g/ha) | Plant response rating, Pigweed [11, 23] | Plant response rating, Lambsquarters [12, 23] | Plant response rating, Nightshade ([13]; Rate 62 g/ha, scale 0 to 100) | Plant response rating, Nightshade [13, 22] | Plant response rating, Nightshade [13, 26] | Plant response rating, Corn [14, 22] | Plant response rating, Corn [14, 23] | Plant response rating, Corn [14, 25] | Plant response rating, Soybean [15, 22] | Plant response rating, Soybean [15, 23] | Plant response rating, Soybean [15, 25] | Plant response rating, Kochia [16, 22] | Plant response rating, Kochia [16, 23] | Plant response rating, Nutsedge [17, 22] | Plant response rating, Nutsedge [17, 23] | Plant response rating (0 to 100), Nutsedge [17, 24] | Plant response rating, Nutsedge [17, 25] | Plant response rating, Cupgrass, Woolly [18, 23] | Plant response rating, Johnsongrass ([19]; Rate 62 g/ha, scale 0 to 100)
